Measurements: patent publication US8586542B2, “Small molecule apoptosis promoters” (Joyant Pharmaceuticals, Inc., priority 2006, dated 2013)
Like-named read-outs stand apart in the source and are kept apart here.

How the values were obtained:
[1] = tested on: HCC461 cells; experiment: Cell viability assay in HCC461 cells (WST-1); format: cell-based; conditions: read-out: HCC461 cell
Description: HCC461 cells plated in 96 well plates at 5×10^4/ml cell density are treated with 50× synthetic Smac mimetic compounds (final concentration range between 30 uM and 0.001 uM). After 48 hrs incubation at 37° C. and 5% CO2, viability of the cells are measured using Cell Proliferation Reagent WST-1 assay kit (Roche Cat #11 644 807 001).
The tetrazolium salts are cleaved to formazan by cellular enzymes. An expansion in the number of viable cells results in an increase in the overall activity of mitochondrial dehydrogenases in the samples. This augmentation in the enzyme activity leads to an increase in the amount of formazan dye formed, which directly correlates to the number of metabolically active cells in the culture. Quantification of the formazan dye produced by metabolically active cells by using a microplate (ELISA) reader at 420-480 nm.

[2] = target: T1, truncated XIAP containing only BIR1, BIR2, and BIR3 domains (Homo sapiens, UniProt P98170); experiment: Fluorescent polarization assay (Bir binding); conditions: competition with 2 nM fluorescein labeled AVPI peptide, room temperature, 1 hour
T1 construct: truncated XIAP containing only BIR1, BIR2, and BIR3 domains
T1 sequence (P98170 1-356 limits assumed): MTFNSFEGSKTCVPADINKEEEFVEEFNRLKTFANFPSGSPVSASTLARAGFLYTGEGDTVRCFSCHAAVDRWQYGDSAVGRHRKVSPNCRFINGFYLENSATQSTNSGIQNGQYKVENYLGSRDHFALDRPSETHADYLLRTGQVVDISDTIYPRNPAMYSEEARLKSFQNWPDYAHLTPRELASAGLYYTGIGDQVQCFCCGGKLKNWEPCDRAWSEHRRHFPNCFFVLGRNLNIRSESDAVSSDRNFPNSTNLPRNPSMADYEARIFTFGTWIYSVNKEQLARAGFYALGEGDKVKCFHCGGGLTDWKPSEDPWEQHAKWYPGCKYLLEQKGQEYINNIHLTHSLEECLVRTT
Description: Increasing concentrations of Smac compounds are incubated with 2 nM of labeled peptide (fluorescein labeled 10 mer peptide with AVPI 4 amino acids at its N terminus-Alexa Fluor 488) and truncated XIAP containing only BIR1, BIR2, and BIR3 domains at room temperature for 1 hour. Fluorescence reading, indicative of the bound portion of the labeled peptide, is measured in milipolarization units (mP). The more compound added, less fluorescein labeled peptide bind to the protein due to the competitive binding and less fluorescence signal is released.
Based on this principle, we obtain the Ki value that evaluates compound's binding affinity.

[3] = tested on: Caspase3 in Hela S100; experiment: In-vitro caspase-3 activation assay in Hela S100 extract; format: biochemical; conditions: 100 nM compound, Hela S100, 1 mM dATP; slope versus control (compound 1 = Caspase std.)
Description: Caspase3 in most cell extracts can be activated by the addition of 1 mM dATP through the mitochondria caspase pathway. […] Taking advantage of this feature, we use 100 nM of synthetic Smac mimetic compound to test its ability to eliminate IAPB in the Hela S100 and fully induce Caspase3 activity. The In Vitro Caspase3 assay is carried out at 30° C., incubating 100 nM compounds with 30 ug of Hela S100, 1 mM dATP, 10 uM Caspase3 fluorogenic substrate (Caspase3 Substrate II, Fluorogenic, #235425 from Calbiochem). The readout is caspase-3 activity represented by relative fluorogenic unit, which is recorded kinetically. The slope in linear region of the curve for each compound is calculated.
The ratio of each synthetic compound's slope versus the slope of control reflects in vitro caspase-3 activation ability of compounds.

[4] = HCC461, 48 hrs incubation, WST-1 viability

SMILES	IC50 [1, 4]	Bir binding [2]	Caspase % [3]	IC50 ([1]; HCC461, 48 h)
CN[C@@H](C)C(=O)N[C@@H](CC#CC#CC[C@H](NC(=O)[C@H](C)NC)C(=O)N1CCC[C@H]1C(=O)NC(C)c1ccccc1)C(=O)N1CCC[C@H]1C(=O)NC(C)c1ccccc1 (some centres unmarked) [Compound 7]	373 nM	0.144 µM	101%	
CCC[C@H](NC)C(=O)N[C@@H](CC#CC#CC[C@H](NC(=O)[C@H](C)NC)C(=O)N1CCC[C@H]1C(=O)N[C@@H]1CCCc2ccccc21)C(=O)N1CCC[C@H]1C(=O)N[C@@H]1CCCc2ccccc21.Cl.Cl [Compound 15]	80 nM	0.638 µM	87%	
CN[C@@H](C)C(=O)N[C@@H](CCCc1ccc([C@H](NC(=O)[C@H](C)NC)C(=O)N2CCC[C@H]2C(=O)N[C@@H]2CCCc3ccccc32)cc1)C(=O)N1CCC[C@H]1C(=O)N[C@@H]1CCCc2ccccc21 [Compound 28]	70 nM	0.2 µM	102%	
CN[C@@H](C)C(=O)N[C@@H](CCCc1ccc([C@H](NC(=O)[C@H](C)NC)C(=O)N2CCC[C@H]2C(=O)N[C@@H]2CCCc3ccccc32)cc1)C(=O)N1CCC[C@H]1C(=O)N[C@@H]1CCCc2ccccc21.Cl.Cl [Compound 38]		0.2 µM	102%	
CN[C@@H](C)C(=O)N[C@@H](CC#CC#CCO[C@H](C)[C@H](NC(=O)[C@H](C)NC)C(=O)N1CCCC1C(=O)N[C@@H]1CCCc2ccccc21)C(=O)N1CCCC1C(=O)N[C@@H]1CCCc2ccccc21.Cl.Cl (some centres unmarked) [Compound 13]	70 nM	0.188 µM	105%	
CN[C@@H](C)C(=O)N[C@@H](CC#Cc1ccc([C@H](NC(=O)[C@H](C)NC)C(=O)N2CCC[C@H]2C(=O)N[C@@H]2CCCc3ccccc32)cc1)C(=O)N1CCC[C@H]1C(=O)N[C@@H]1CCCc2ccccc21.Cl.Cl [Compound 26]	100 nM	0.235 µM	106%	
CN[C@@H](C)C(=O)N[C@H](C(=O)N1CCC[C@H]1C(=O)N[C@@H]1CCCc2ccccc21)[C@@H](C)OCc1nnn2c1-c1c(CO[C@H](C)[C@H](NC(=O)[C@H](C)NC)C(=O)N3CCC[C@H]3C(=O)N[C@@H]3CCCc4ccccc43)nnn1CC2.Cl.Cl [Compound 23]	490 nM	0.13 µM	109%	
CN[C@@H](C)C(=O)N[C@H](C(=O)N1CCC[C@H]1C(=O)N[C@@H]1CCCc2ccccc21)[C@@H](C)OCc1nnn2c1-c1c(CO[C@H](C)[C@H](NC(=O)[C@H](C)NC)C(=O)N3CCC[C@H]3C(=O)N[C@@H]3CCCc4ccccc43)nnn1CCC2.Cl.Cl [Compound 19]	240 nM	0.14 µM	98%	
CC[C@H](NC)C(=O)N[C@H](C(=O)N1CCC[C@H]1C(=O)N[C@@H]1CCCc2ccccc21)c1ccc(C#CCO[C@H](C)[C@H](NC(=O)[C@H](C)NC)C(=O)N2CCC[C@H]2C(=O)N[C@@H]2CCCc3ccccc32)cc1.Cl.Cl [Compound 39]	160 nM	0.18 µM	102%	
CN[C@@H](C)C(=O)N[C@H](C(=O)N1CCC[C@H]1C(=O)N[C@@H]1CCCc2ccccc21)[C@@H](C)OCc1cn(CCn2cc(CO[C@H](C)[C@H](NC(=O)[C@H](C)NC)C(=O)N3CCC[C@H]3C(=O)N[C@@H]3CCCc4ccccc43)nn2)nn1.Cl.Cl [Compound 22]	810 nM	0.13 µM	106%	
CN[C@@H](C)C(=O)N[C@@H](CCCCCC[C@H](NC(=O)[C@H](C)NC)C(=O)N1CCC[C@H]1C(=O)N[C@@H]1CCCc2ccccc21)C(=O)N1CCC[C@H]1C(=O)N[C@@H]1CCCc2ccccc21 [Compound 2]		0.15 µM	105%	10 nM
CN[C@@H](C)C(=O)N[C@@H](Cc1cn(CCCn2cc(C[C@H](NC(=O)[C@H](C)NC)C(=O)N3CCC[C@H]3C(=O)N[C@@H]3CCCc4ccccc43)nn2)nn1)C(=O)N1CCC[C@H]1C(=O)N[C@@H]1CCCc2ccccc21.Cl.Cl [Compound 17]	690 nM	0.136 µM	98%	
CN[C@@H](C)C(=O)NC(C(=O)N[C@@H](Cc1cn(C/C=C\Cn2cc(C[C@H](NC(=O)[C@@H](NC(=O)[C@H](C)NC)C(C)(C)C)C(=O)N[C@@H]3CCCc4ccccc43)nn2)nn1)C(=O)N[C@@H]1CCCc2ccccc21)C(C)(C)C.Cl.Cl (some centres unmarked) [Compound 24]	1400 nM	1.5 µM	81%	
CN[C@@H](C)C(=O)N[C@@H](Cc1nnn2c1-c1c(C[C@H](NC(=O)[C@H](C)NC)C(=O)N3CCC[C@H]3C(=O)N[C@@H]3CCCc4ccccc43)nnn1CCC2)C(=O)N1CCCC1C(=O)N[C@@H]1CCCc2ccccc21.Cl.Cl (some centres unmarked) [Compound 18]	760 nM	0.176 µM	88%	
CN[C@@H](C)C(=O)N[C@@H](CC#CC#CC[C@H](NC(=O)[C@H](C)NC)C(=O)N1CCC[C@H]1C(=O)N[C@@H]1CCCc2ccccc21)C(=O)N1CCC[C@H]1C(=O)N[C@@H]1CCCc2ccccc21 [Compound 1]		0.07 µM	100%	4 nM

Continued by falling IC50 [1, 4], values first:

IC50 [1, 4]	Bir binding [2]	Caspase % [3]	SMILES	IC50 ([1]; HCC461, 48 h)
30 nM	0.15 µM	85%	CN[C@@H](C)C(=O)N[C@H](C(=O)N1CCCC1)c1ccc(C#CCO[C@H](C)[C@H](NC(=O)[C@H](C)NC)C(=O)N2CCC[C@H]2C(=O)N[C@@H]2CCCc3ccccc32)cc1.Cl.Cl [Compound 40]	
25 nM	0.11 µM	55%	CNC(C)C(=O)N[C@@H](CCCCCC[C@H](NC(=O)[C@H](C)NC)C(=O)N1CCC[C@H]1C(=O)NC(c1ccccc1)c1ccccc1)C(=O)N1CCC[C@H]1C(=O)NC(c1ccccc1)c1ccccc1 (some centres unmarked) [Compound 4]	
20 nM	0.2 µM	97%	CN[C@@H](C)C(=O)N[C@@H](CCCCNC(=O)CC(=O)NCCCC[C@H](NC(=O)[C@H](C)NC)C(=O)N1CCC[C@H]1C(=O)N[C@@H]1CCCc2ccccc21)C(=O)N1CCC[C@H]1C(=O)N[C@@H]1CCCc2ccccc21.Cl.Cl [Compound 50]	
20 nM	0.2 µM	105%	CC[C@H](NC)C(=O)N[C@@H](CCCCCC[C@H](NC(=O)[C@H](CC)NC)C(=O)N1CCC[C@H]1C(=O)N[C@@H]1CCCc2ccccc21)C(=O)N1CCC[C@H]1C(=O)N[C@@H]1CCCc2ccccc21 [Compound 10]	
12 nM	0.172 µM	94%	CN[C@@H](C)C(=O)N[C@H](C(=O)N1CCC[C@H]1C(=O)N[C@@H]1CCCc2ccccc21)[C@@H](C)OCC#CC=CCO[C@H](C)[C@H](NC(=O)[C@H](C)NC)C(=O)N1CCC[C@H]1C(=O)N[C@@H]1CCCc2ccccc21.Cl.Cl [Compound 11]	
9 nM	0.196 µM	108%	CC[C@H](NC)C(=O)N[C@@H](CC#CC#CC[C@H](NC(=O)[C@H](CC)NC)C(=O)N1CCC[C@H]1C(=O)N[C@@H]1CCCc2ccccc21)C(=O)N1CCC[C@H]1C(=O)N[C@@H]1CCCc2ccccc21 [Compound 9]	
3 nM	0.18 µM	104%	CN[C@@H](C)C(=O)N[C@@H](Cc1ccc(OC/C=C\COc2ccc(C[C@H](NC(=O)[C@H](C)NC)C(=O)N3CCCC3C(=O)N[C@@H]3CCCc4ccccc43)cc2)cc1)C(=O)N1CCCC1C(=O)N[C@@H]1CCCc2ccccc21.Cl.Cl (some centres unmarked) [Compound 44]	
